Source: patent US7338776B2, “Production of UGPPase” (JCR Pharmaceuticals Co., Ltd., priority 2002, dated 2008)

T1: human UGPPase (Homo sapiens, UniProt O95848)
T1 construct: made in house; host or cells: E. coli AD494(DE3), plasmid pET11a-AAD15563.1
T1 sequence (O95848 1-222): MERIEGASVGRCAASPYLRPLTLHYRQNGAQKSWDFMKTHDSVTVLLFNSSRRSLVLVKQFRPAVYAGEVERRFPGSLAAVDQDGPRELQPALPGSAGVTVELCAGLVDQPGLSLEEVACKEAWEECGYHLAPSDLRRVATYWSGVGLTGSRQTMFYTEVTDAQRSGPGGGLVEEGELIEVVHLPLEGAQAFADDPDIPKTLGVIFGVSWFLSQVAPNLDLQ

T2: Porcine UGPPase (Sus scrofa, UniProt Q865Y9)
T2 construct: Fresh porcine kidney, 3.6-kg of weight, was homogenized; from tissue; host or cells: porcine kidney
T2 sequence (Q865Y9 1-222): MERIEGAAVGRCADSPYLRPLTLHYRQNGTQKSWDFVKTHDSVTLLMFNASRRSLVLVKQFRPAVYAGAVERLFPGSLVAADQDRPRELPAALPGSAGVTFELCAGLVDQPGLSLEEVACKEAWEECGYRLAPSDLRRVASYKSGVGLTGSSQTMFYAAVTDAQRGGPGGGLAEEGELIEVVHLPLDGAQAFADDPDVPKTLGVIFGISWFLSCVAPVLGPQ


How the values were obtained:
human UGPPase = target: T1, human UGPPase; test: UGPPase activity measurement (G1P produced, coupled NADH read-out), substrate specificity and UDPG dependence, human recombinant enzyme; assay type: biochemical; settings: 5 mM of corresponding substrate, UDPG = 100%
Description: (§1) UGPPase activity is defined based on the amount of G1P produced by the enzyme. The measurement is carried in two-step reactions according to the method reported by Rodriguez-Lopez et al. (11). In the first reaction, 50 μl of the reaction mixture consisting of a sample containing UGPPase, 0-20 mM concentration of a sugar nucleotide (UDP-, ADP- or GDP-glucose)(SIGMA), 20 mM MgCl2, and 50 mM Tris-HCl (pH 9.0), and the mixture is incubated at 37° C. for 30 minutes. As a blank, the same sample that has been boiled for two minutes to inactivate UGPPase is used. After the incubation period, the reaction is terminated by a two-minute boiling, and the mixture centrifuged at 20,000 g for 10 minutes at 4° C.
(§2) The reaction mixture is placed in a 96-well FluoroNunc™ plate (NUNC) and incubated at 37° C. for 10 minutes. This second reaction produces an equimolar amount of NADH to that of G1P produced in the first reaction. The amount of NADH is determined by measuring OD at 340 nm using a microplate reader (MOLECULAR DEVICE).
(§3) The activity was calculated as follows: 1U=[a]/30/0.03 where [a]is the amount in μmol of NADH produced in the reaction.
(§4) The above conditions of the first reaction were modified according to the purpose of each of the test, as specifically indicated below.

Porcine UGPPase = target: T2, Porcine UGPPase; test: UGPPase activity measurement (G1P produced, coupled NADH read-out), substrate specificity and UDPG dependence, porcine enzyme; assay type: biochemical, pig; settings: 5 mM of corresponding substrate, UDPG = 100%
Description: as §1, §2, §3, §4

[1] = Specific activity and optimal pH of purified UGPPase products; assay type: biochemical; settings: UGPPase activity
Description: as §1, §2, §3, §4

[2] = target: rabbit anti-hUGPPase antibody; test: hUGPPase ELISA; assay type: binding; settings: rabbit anti-hUGPPase antibody as solid phase, fusion protein as standard (FIG. 23)
Description: The rabbit anti-hUGPPase antibody prepared in (14) above was diluted with 50 mM NaHCO3, pH 9.6 to prepare a 25 μg/ml solution. The solution was added to the wells of a 96-well plate (NUNC), 100 μl each, and incubated at 37° C. for 1 hour for coating. The antibody solution was removed and 300 μl of a blocking buffer [1.0% (w/v) BSA, PBS, 10 mM glycine, pH 7.4] was added to each well and incubated at 37° C. for 1 hour for blocking.
For preparation of a standard, hUGPPase His-tag fusion protein was diluted stepwise to 10 μg/ml-0.1 ng/ml using a dilution buffer [20 mM Tris, 150 mM NaCl, 0.1% (w/v) BSA, pH7.4].
To use as samples, two types of E. coli AD494(DE3) cells, the one with introduced plasmid pET-19b AAD15563.1 and the other with plasmid pET-19b, respectively, were lysed and diluted to 50, 5, 0.5 and 0.05 μg/ml with the dilution buffer. Each well of the plate was removed of the blocking buffer and washed 3 times with 300 μl each of TTBS. To each well was added 100 μl of the standard or the sample solution and an incubation followed at 37° C. for 1 hour.
For detection of hUGPPase His-tag fusion protein, the HRP-conjugated rabbit anti-hUGPPase antibody prepared in (15) was used after dilution to 0.5 μg/ml with the dilution buffer. […] After a 5-min incubation at room temperature, 50 μl of 2M H2SO4 was added to each well to terminate the reaction, and OD at 450 nm was measured.

Row | Molecule | % activity with respect to UDPG (human UGPPase) | % activity with respect to UDPG (Porcine UGPPase) | EC50 (effecter concentration for half-maximum response) of the ELISA system [2] | Specific activity of the final purified product [1] | Specific activity of the final purified product ([1]; listed as r-hUGPPase)
1 | Nc1ncnc2c1ncn2[C@@H]1O[C@H](COP(=O)(O)O)[C@@H](O)[C@H]1O [AMP, adenosine 5′-monophosphate] | bdl | bdl | – | – | –
2 | Nc1ncnc2c1ncn2[C@@H]1O[C@H](COP(=O)(O)OP(=O)(O)OC[C@H]2OC(O)[C@H](O)[C@@H]2O)[C@@H](O)[C@H]1O (stereo partly shown) [ADP-ribose] | 110% | 95% | – | – | –
3 | O=[N+]([O-])c1ccc(OP(=O)(O)Oc2ccc([N+](=O)[O-])cc2)cc1 [Bis-PNPP] | bdl | bdl | – | – | –
4 | Nc1ncnc2c1ncn2[C@@H]1O[C@H](COP(=O)(O)OP(=O)(O)OP(=O)(O)O)[C@@H](O)[C@H]1O [ATP] | bdl | bdl | – | – | –
5 | Nc1ccn([C@@H]2O[C@H](COP(=O)(O)OP(=O)(O)O[C@H]3O[C@H](CO)[C@@H](O)[C@H](O)[C@H]3O)[C@@H](O)[C@H]2O)c(=O)n1 [CDPG] | 3% | 2% | – | – | –
6 | Nc1ncnc2c1ncn2[C@@H]1O[C@H](COP(=O)(O)OP(=O)(O)O)[C@@H](O)[C@H]1O [ADP] | bdl | bdl | – | – | –
7 | human UGPPase: recombinant protein AAD15563.1 (SEQ ID NO:2) expressed in E. coli AD494(DE3), final MonoP-purified product (protein, listed as Homo sapiens, USPPase) MERIEGASVGRCAASPYLRPLTLHYRQNGAQKSWDFMKTHDSVTVLLFNSSRRSLVLVKQFRPAVYAGEVERRFPGSLAAVDQDGPRELQPALPGSAGVTVELCAGLVDQPGLSLEEVACKEAWEECGYHLAPSDLRRVATYWSGVGLTGSRQTMFYTEVTDAQRSGPGGGLVEEGELIEVVHLPLEGAQAFADDPDIPKTLGVIFGVSWFLSQVAPNLDLQ | – | – | – | 6.7 U/mg | 6.74 U/mg

The next lines start with results.

Row | % activity with respect to UDPG (human UGPPase) | % activity with respect to UDPG (Porcine UGPPase) | EC50 (effecter concentration for half-maximum response) of the ELISA system [2] | Molecule | Specific activity of the final purified product [1] | Specific activity of the final purified product ([1]; listed as r-hUGPPase)
8 | bdl | bdl | – | NC(=O)c1ccc[n+]([C@@H]2O[C@H](COP(=O)([O-])OP(=O)(O)OC[C@H]3O[C@@H](n4cnc5c(N)ncnc54)[C@H](O)[C@@H]3O)[C@@H](O)[C@H]2O)c1 [NAD] | – | –
9 | ~10% | ~10% | – | Nc1nc2c(ncn2[C@@H]2O[C@H](COP(=O)(O)OP(=O)(O)O[C@H]3O[C@H](CO)[C@@H](O)[C@H](O)[C@H]3O)[C@@H](O)[C@H]2O)c(=O)[nH]1 [GDPG, GDP-glucose] | – | –
10 | bdl | bdl | – | O=c1ccn([C@@H]2O[C@H](COP(=O)(O)OP(=O)(O)OP(=O)(O)O)[C@@H](O)[C@H]2O)c(=O)[nH]1 [UTP] | – | –
11 | bdl | bdl | – | O=[N+]([O-])c1ccc(OP(=O)(O)O)cc1 [PNPP] | – | –
12 | bdl | bdl | – | O=C(O)[C@H]1O[C@H](OP(=O)(O)OP(=O)(O)OC[C@H]2O[C@@H](n3ccc(=O)[nH]c3=O)[C@H](O)[C@@H]2O)[C@H](O)[C@@H](O)[C@@H]1O [UDP-glucuronic] | – | –
13 | – | – | 0.2468 µg/mL | hUGPPase His-tag fusion protein: His-tagged hUGPPase expressed from pET-19b AAD15563.1 in E. coli, purified; ELISA standard (protein, left off: small tags and cut ends, His-tagged hUGPPase expressed from pET-19b AAD15563.1 in E. coli, purified; ELISA standard) MGLLLPLPVPGLLLLEAETHPHFPCNHGQEGACTRHARVRAYPGPLVHRRKRPAWLWELAAPACPGAAMERIEGASVGRCAASPYLRPLTLHYRQNGAQKSWDFMKTHDSVTVLLFNSSRRSLVLVKQFRPAVYAGEVERRFPGSLAAVDQDGPRELQPALPGSAGVTVELCAGLVDQPGLSLEEVACKEAWEECGYHLAPSDLRRVATYWSGVGLTGSRQTMFYTEVTDAQRSGPGGGLVEEGELIEVVHLPLEGAQAFADDPDIPKTLGVIFGVSWFLSQVAPNLDLQ | – | –
